Test results as given in US10399959B2, “Acid-addition salt of Trk-inhibiting compound” (ONO PHARMACEUTICAL CO., LTD., priority 2014, dated 2019).
Where two headings read alike, the source gives them in different places.

What was measured:
[1] = test system: sodium monoiodoacetate-induced model rats; assay: Analgesic effect on sodium monoiodoacetate-induced model rats; type: in vivo, rat; conditions: MIA rats, day 24
[2] = test system: rat NGF-induced vascular hyper permeability; assay: Inhibiting effect of rat NGF-induced vascular hyper permeability; type: in vivo; conditions: 1 mg/kg oral (as free base)
Description: TrkA-inhibiting activity of the present compound was evaluated in vivo. The present compound dissolved in a medium was orally administered (adminstered volume: 5 mL/kg) to male CD(SD)IGS rats (7- to 9-week old, Charles River Laboratories Japan, Inc.) shaved on the back. A medium was orally administered (adminstered volume: 5 mL/kg) to the control and normal groups. After 12 or 14 hours of administration, 3 μg/mL of an NGF (Mouse 2.5s, Natural, Invitrogen) solution prepared in 0.1% BSA (Sigma-Aldrich)-containing saline was intracutaneously administered (adminstered volume; 50 μL/site) at 3 sites on the back of animals under halothane anesthesia. For the normal group, 0.1% BSA-containing saline was intracutaneously administered (adminstered volume; 50 μL/site) at 3 sites on the back. Immediately after intracutaneous administration, 1% Evans Blue (Tokyo Chemical Industriy Co., Ltd.) dissolved in saline was administered intravenously from tail (adminstered volume: 3 mL/kg). After 10 minutes of administration, the animals were sacrificed by bleeding due to incision of the abdominal aorta. The sites of intracutaneous administration on the back (3 sites) were excised, and the skin samples were respectively transferred to the wells in a 48-well plate (Asahi Glass Co., Ltd.). […] The formamide extraction solution (200 μL) was transferred to a 96-well plate, and the absorbance (wavelength: 620 nm) of Evans Blue extracted in formamide was measured on an absorbance microplate reader (SpectraMAX 190, Molecular Devices Japan, K.K.). Standard samples of Evans Blue dissolved in formamide (0, 0.78, 1.56, 3.13, 6.25, 12.5, 25, and 50 μg/mL) were measured at the same time for the absorbance (wavelength: 620 nm), thereby preparing a calibration curve. Based on the calibration curve and the absorbances of the respective samples, the concentrations of Evans Blue in each sample was calculated. […] The rate of inhibition for rat NGF-induced vascular hyper permeability of the present compound was calculated according to the following Equation 4. […]

[3] = Test regarding solubility in artificial intestinal juice (FaSSIF); type: physicochemical; conditions: after lapsing 0.25 hours; for solubility / solubility at 0.25 h: artificial intestinal juice (FaSSIF); for solubility / solubility per free base: 37° C.; for solubility at 0.25 h: 37 °C, fassif, thermodynamic from solid
Description: About 5 mg of the present compound was weighed in a test tube, a stirrer and 5 mL of an artificial intestinal juice (FaSSIF; Reference 1: Pharmaceutical Research, Vol. 20, pp. 1674-1680, 2003, and Reference 2: Biological & Pharmaceutical Bulletin, Vol. 34, pp. 401-407, 2011) were added in the test tube, and the test tube was then hermetically sealed. The test tube was placed in a solubility test apparatus (Gilson, Quad-Z 215), and stirring was performed at 37° C. and 700 rpm. A part of the liquid in the test tube was collected after lapsing 0.25, 0.5, 1, 3, 6, and 24 hours, respectively. The collected liquid was filtered with a filter, and the filtrate was diluted to 2-fold with acetonitrile. The diluted liquid was centrifuged at 3,000 rpm for 5 minutes. A supernatant after centrifugation was used as a sample solution and calculated for solubility by means of high-performance liquid chromatography.
High-Performance Liquid Chromatography Measurement Conditions

[4] = present compound oral twice a day over 10 days, then 3 hours before measurement, dose (0.1, 0.3 or 1 mg/kg) not given
[5] = FaSSIF, salt value converted to the corresponding free base, read-out: solubility per free base
[6] = 14 hours before administration of NGF
[7] = FaSSIF, salt value converted to the corresponding free base, Methanesulfonate
[8] = as the substance itself (salt or free base), Methanesulfonate

## CN1CC[C@]23c4c5ccc(O)c4O[C@H]2[C@@H](O)C=C[C@H]3[C@H]1C5 [morphine, reference compound]
[1]; morphine 3 mg/kg subcutaneous one hour before measurement
  percent improvement (right hind limb weight load ratio): 54%

## Nc1ncc(F)cc1-c1ccc(Oc2ncc(NC(=O)Nc3cc(C(F)(F)F)ccc3-c3cccnc3)cn2)cc1 [di(p-toluenesulfonate) of Compound (II), 1-{2-[4-(2-amino-5-fluoropyridin-3-yl)phenoxy]pyrimidin-5-yl}-3-[2-(pyridin-3-yl)-5-(trifluoromethyl)phenyl]urea di(p-toluenesulfonate)]
[2]; 12 hours before administration of NGF
  inhibition rate of rat NGF-induced vascular hyper permeability: about 78%
[1]; [4]
  percent improvement (right hind limb weight load ratio): about 53%
[3]; as the substance itself (salt or free base), di(p-toluenesulfonate)
  solubility: 99 µg/mL
[3]; [5]
  solubility at 0.25 h: 61 µg/mL

## Nc1ncc(Cl)cc1-c1ccc(Oc2ncc(NC(=O)Nc3cc(C(F)(F)F)ccc3-n3cccn3)cn2)cc1 [methanesulfonate of Compound (III), 1-(2-(1H-pyrazol-1-yl)-5-(trifluoromethyl)phenyl)-3-(2-(4-(2-amino-5-chloropyridin-3-yl)phenoxy)pyrimidin-5-yl)urea Methanesulfonate]
[2]; [6]
  inhibition rate of rat NGF-induced vascular hyper permeability: about 97%
[1]; [4]
  percent improvement (right hind limb weight load ratio): about 61%
[3]; [7]
  solubility per free base: 45 µg/mL
[3]; [8]
  solubility: 53 µg/mL

## Nc1ncc(Cl)cc1-c1ccc(Oc2ncc(NC(=O)Nc3cc(C(F)(F)F)ccc3-n3cccn3)cn2)cc1 [p-toluenesulfonate of Compound (III), 1-(2-(1H-pyrazol-1-yl)-5-(trifluoromethyl)phenyl)-3-(2-(4-(2-amino-5-chloropyridin-3-yl)phenoxy)pyrimidin-5-yl)urea p-Toluenesulfonate]
[3]; [5]
  solubility at 0.25 h: 42 µg/mL
[3]; as the substance itself (salt or free base), read-out: solubility
  solubility at 0.25 h: 55 µg/mL

## CS(=O)(=O)c1ccc(C(F)(F)F)cc1NC(=O)Nc1cnc(Oc2ccc(-c3cc(Cl)cnc3N)cc2)nc1 [p-toluenesulfonate of Compound (I), 1-{2-[4-(2-amino-5-chloro-3-pyridinyl)phenoxy]-5-pyrimidinyl}-3-[2-(methylsulfonyl)-5-(trifluoromethyl)phenyl]urea p-toluenesulfonate]
[3]; as the substance itself (salt or free base), p-toluenesulfonate
  solubility: 96 µg/mL
[3]; [5]
  solubility at 0.25 h: 74 µg/mL

## COc1cccc(C2(O)CCCCC2CN(C)C)c1 (stereo not drawn) [tramadol, reference compound]
[1]; tramadol 10 mg/kg subcutaneous one hour before measurement
  percent improvement (right hind limb weight load ratio): 43%

## CS(=O)(=O)c1ccc(C(F)(F)F)cc1NC(=O)Nc1cnc(Oc2ccc(-c3cc(Cl)cnc3N)cc2)nc1 [Compound (I), 1-{2-[4-(2-amino-5-chloro-3-pyridinyl)phenoxy]-5-pyrimidinyl}-3-[2-(methylsulfonyl)-5-(trifluoromethyl)phenyl]urea]
[3]; as the substance itself (salt or free base)
  solubility: 7 µg/mL

## Nc1ncc(F)cc1-c1ccc(Oc2ncc(NC(=O)Nc3cc(C(F)(F)F)ccc3-c3cccnc3)cn2)cc1 [dibenzenesulfonate of Compound (II), 1-{2-[4-(2-amino-5-fluoropyridin-3-yl)phenoxy]pyrimidin-5-yl}-3-[2-(pyridin-3-yl)-5-(trifluoromethyl)phenyl]urea dibenzenesulfonate]
[3]; FaSSIF, salt value converted to the corresponding free base, dibenzenesulfonate
  solubility per free base: 52 µg/mL
[3]; as the substance itself (salt or free base), dibenzenesulfonate
  solubility: 81 µg/mL

## CS(=O)(=O)c1ccc(C(F)(F)F)cc1NC(=O)Nc1cnc(Oc2ccc(-c3cc(Cl)cnc3N)cc2)nc1.Cl [hydrochloride of Compound (I), 1-{2-[4-(2-amino-5-chloro-3-pyridinyl)phenoxy]-5-pyrimidinyl}-3-[2-(methylsulfonyl)-5-(trifluoromethyl)phenyl]urea Hydrochloride]
[2]; [6]
  inhibition rate of rat NGF-induced vascular hyper permeability: about 100%
[1]; [4]
  percent improvement (right hind limb weight load ratio): about 54%

## CS(=O)(=O)c1ccc(C(F)(F)F)cc1NC(=O)Nc1cnc(Oc2ccc(-c3cc(Cl)cnc3N)cc2)nc1 [methanesulfonate of Compound (I), 1-{2-[4-(2-amino-5-chloro-3-pyridinyl)phenoxy]-5-pyrimidinyl}-3-[2-(methylsulfonyl)-5-(trifluoromethyl)phenyl]urea Methanesulfonate]
[3]; [7]
  solubility per free base: 47 µg/mL
[3]; [8]
  solubility: 55 µg/mL
